These results are taken from patent US20250333745A1, “METHODS AND COMPOSITIONS FOR TREATMENT OF POLYCYSTIC KIDNEY DISEASE” (Regulus Therapeutics Inc., priority 2016, published 2025).

A short description of series [1]: In vitro metabolic stability in mouse liver lysate. The series is classed as in vitro ADME. To be noted: 24-hour incubation of RG4326. Here is the method: Metabolic stability was evaluated by incubating each anti-miR-17 compound in a mouse liver lysate. After 24 hours, the percentage of intact compound remaining is calculated. Compounds that are not stable following a 24-hour incubation are potentially not stable in vivo.
(§1) Due to their reduced capacity for serum protein binding, which is a property that drives oligonucleotide distribution in the body, short oligonucleotides are not necessarily expected to have pharmacokinetic properties that make them suitable for use as drugs. RG4326 was incubated in mouse, monkey or human liver homogenate. The identity and concentration of RG4326 and metabolites was determined after a 24-hour incubation. RG4326 and metabolites were extracted using liquid-liquid extraction (LLE) and/or solid-phase extraction (SPE), which were then analyzed for identity and concentration using ion-pairing-reversed-phase high performance liquid chromatography coupled with time-of-flight mass spectrometry (IP—RP-HPLC-TOF).

A short description of series [2]: In vitro metabolic stability in monkey liver lysate. The note with it: 24-hour incubation of RG4326. It counts as in vitro ADME. Here is the method:
as §1

The nature of series [3]: In vitro metabolic stability in human liver lysate. It counts as in vitro ADME. The note with it: 24-hour incubation of RG4326. Here is the method: as §1
A further series has as its system Pcy mice. Kind of series: Efficacy in the Pcy model of PKD. It counts as in vivo, mouse. From the text:
Two experimental models of PKD were used to evaluate efficacy. Pkd2-KO mice spontaneously develop polycystic kidney disease, and were used as a model of ADPKD. See Patel et al., PNAS, 2013; 110 (26): 10765-10770. Pcy mice bearing a mutation in Nphp3 spontaneously develop polycystic kidney disease, with a slower progression of disease than that observed in the Pkd2-KO mice. The Pcy model is used as a model of nephronophthisis. See Happe and Peters, Nat. Rev. Nephrol., 2014; 10:587-601.
Cyst index is a histological measurement of cystic area relative to total kidney area. For this analysis, one kidney was perfused with cold PBS and 4% (wt/vol) paraformaldehyde and then harvested. Kidneys were fixed with 4% paraformaldehyde for 2 hours and then, embedded in paraffin for sectioning. Sagittal sections of kidneys were stained with hematoxylin and eosin (H&E). All image processing steps were automated and took place in freely available and open source software: An R1 script which used functions from the EBImage Bioconductor package2 and the ImageMagick3 suite of image processing tools. Kidney H&E images in Aperio SVS format were converted to TIFF images, and the first frame was retained for image analysis. First, the total kidney section area was calculated using image segmentation. Image segmentation was similarly used to find all internal structures including kidney cyst. A filter was applied to remove all objects less than a mean radius of three pixels. The cystic index is the image area associated with cysts divided by the total kidney areas. Cystic index was separately calculated for longitudinal and transverse kidney sections for each individual animal. Combined cystic index of individual animals were compared for each treatment groups.
RG4326 was tested in the Pcy mouse model. Wild-type mice were used as control group. From four weeks of age, Pcy mice were treated once per week via subcutaneous injection with RG4326 at a dose of 25 mg/kg, tool anti-miR-17 at a dose of 25 mg/kg, control oligonucleotide RG5124 at a dose of 25 mg/kg, or PBS. Each treatment group contained 15 male mice. Three treatments were administered on […] days of age, and weekly thereafter at 6, 7, 8, 9, 10, 11, 12, 13, and 14 weeks of age. Also tested was tolvaptan, a vasopressin V2-receptor antagonist (VRA) that is prescribed to some patients with polycystic kidney disease. Mice were sacrificed at 15 weeks of age. Body weight was recorded. One kidney was extracted and weighed and the other processed for histological analysis to calculate cyst index as described for the study in the Pkhd1/cre; Pkd2^F/F. Blood urea nitrogen (BUN) level and serum creatinine level were measured. Statistical significance was calculated by one-way ANOVA with Dunnett's multiple correction.

The subject of the next series is miR-17. Kind of series: microRNA polysome shift assay (miPSA), kidney target engagement. To be noted: kidney, seven days; for miPSA Score PKD Mice: JCK mice, single dose 30 mg/kg; for miPSA Score Wild Type Mice: single dose 3 mg/kg. It counts as in vivo, mouse. The arrangement: miPSA Score Wild Type Mice / miPSA Score PKD Mice / miPSA displacement score (mean): scale not given here. Here is the method: (§2) In vivo potency was evaluated using the microRNA polysome shift assay (miPSA). This assay was used to determine the extent to which compounds directly engage the miR-17 target in the kidney in normal and PKD mice. The miPSA relies on the principle that active miRNAs bind to their mRNA targets in translationally active high molecular weight (HMW) polysomes, whereas the inhibited miRNAs reside in the low MW (LMW) polysomes. Treatment with anti-miR results in a shift of the microRNA from HMW polysomes to LMW polysomes. Thus, the miPSA provides a direct measurement of microRNA target engagement by a complementary anti-miR (Androsavich et al., Nucleic Acids Research, 2015, 44: e13).
(§3) The miPSA was used to assess the potency of each compound, measured by the displacement score, in wild type and JCK mice. Tissue accumulation of anti-miR-17 compound was measured by extraction of compound using liquid-liquid extraction (LLE) and/or solid-phase extraction (SPE), followed by analysis of the identity and concentration of compound using ion-pairing-reversed-phase high performance liquid chromatography coupled with time-of-flight mass spectrometry (IP—RP-HPLC-TOF).
(§4) Wild type mice were administered a single dose of 3 mg/kg for the miPSA analysis, and a single dose of 30 mg/kg for the tissue accumulation analysis. JCK mice were administered a single dose of 30 mg/kg for both the miPSA and tissue accumulation analyses. Kidney tissue was collected seven days following the administration of anti-miR-17 compound. […] A higher kidney-to-liver ratio is generally preferred for a disease where the primary site of action is the kidney.
as §2, with “The” for “In vivo potency was evaluated using the”, “(miPSA),” for “(miPSA). This assay”, “identify” for “determine the extent to which”, “compounds that” for “compounds”, “engage” for “engage the”, “miR-17” for “miR-17 target”
For this experiment, the PKD model selected was the JCK model, a mouse model of slowly progressing renal cystic disease associated with the same gene that causes human nephronophthisis type 9. Renal cysts in this mouse develop in multiple regions of the nephron.
C57BL6 mice were treated with a single, subcutaneous dose of 0.3, 3, and 30 mg/kg of RG4326 or tool anti-miR-17 (described in Example 1). JCK mice were treated with a single, subcutaneous dose of 3, 30, and 100 mg/kg of RG4326 or tool anti-miR-17. PBS treatment was used as an additional control. At seven days post-treatment, mice were sacrificed, and kidney tissue was isolated for the miPSA. […] The displacement scores following treatment with RG4326 were greater than the displacement scores following treatment with the tool anti-miR-17 compound. The data for wild-type mice and JCK mice are also shown in FIG. 3A and FIG. 3B, respectively.
Pharmacokinetic behavior was assessed by administering a single subcutaneous 30 mg/kg dose of RG4326 or tool anti-miR-17 compound to wild-type mice. At one hour, four hours, eight hours, one day, seven days, 14 days, 28 days and 56 days following the single injection, mice were sacrificed and the mean concentration of anti-miR compound in kidney and liver tissue was measured (ug/g) as described above. The area-under-curve (AUC) was calculated for kidney and liver tissue using the formula ug*h/g, where ug is the amount of oligonucleotide in the tissue, h is the timepoint of tissue collection in hours, and g is the weight of the tissue. The ratio of kidney AUC to liver AUC was determined. Kidney tissue was also processed to the miPSA, to determine target engagement for each compound in this study. […]

The nature of series [4]: Tissue accumulation in kidney and liver (kidney-to-liver ratio). The series is classed as in vivo, mouse. The note with it: single dose 30 mg/kg, seven days; for Kidney-to-Liver Ratio PKD Mice: JCK mice. Here is the method: Pharmacokinetic properties and tissue distribution of select compounds were assessed in wild type C57BL6 mice and JCK mice (an experimental model of PKD). Compound was administered to wild type mouse at a dose of 0.3, 3, or 30 mg/kg, or to JCK mice at a dose of 3, 30, or 100 mg/kg. After seven days, mice were sacrificed. Kidney and liver tissues were collected. Concentration of anti-miR-17 compound was measured in liver and kidney. Compounds that accumulate to a greater level in kidney, relative to liver (i.e., have a higher kidney-to-liver ratio) were preferred.
as §3, §4

[5] abbreviates: 25 mg/kg s.c. for oligonucleotides, sacrificed at 15 weeks of age.

As for 5′-ASGSCMAF-3′ [Metabolite 2], in series [1], the “Ex Vivo Liver Lysate (% Analyte), Mouse” value was 0.6%. In addition, the “Ex Vivo Liver Lysate (% Analyte), Monkey” value in series [2] is listed as 2.3%. The “Ex Vivo Liver Lysate (% Analyte), Human” value in series [3] worked out at 0.7%.

Consider 5′-ASGSCMAFCF-3′ [Metabolite 1], for which the “Ex Vivo Liver Lysate (% Analyte), Mouse” value in series [1] is recorded as 0.3%. In addition, the “Ex Vivo Liver Lysate (% Analyte), Monkey” value in series [2] was 1.8%. Besides, the “Ex Vivo Liver Lysate (% Analyte), Human” value in series [3] stood at 0.6%.

For the compound `Cc1ccccc1C(=O)Nc1ccc(C(=O)N2CCCC(O)c3cc(Cl)ccc32)c(C)c1` (stereo not shown) [Tolvaptan, tolvaptan], the “efficacy on KW/BW ratio, BUN or cyst index (in words)” value with Pcy mice is recorded as “not efficacious”. For the same compound, in the series on Pcy mice (setting [5]), the “BUN (mean)” value was 24.4, the Cystic Index (mean) came out at 0.26 and the “KW/BW Ratio (mean)” value is recorded as 20.1.

ASGMCFAFCFUFUFUMGS [Compound 4327]: in the series with miR-17, the “miPSA Score PKD Mice” value is recorded as 1.53 and the “miPSA Score Wild Type Mice” value was determined as 2.85. Also, in series [4], the “Kidney-to-Liver Ratio PKD Mice” value was found to be 9.4 and the “Kidney-to-Liver Ratio Wild Type Mice” value is 24.9.

As to ASGSCMAMCMUMUMUSGS [Compound 4325], in the series with miR-17, the “miPSA Score PKD Mice” value is listed as 2.00 and the “miPSA Score Wild Type Mice” value is given as 1.82. Also, in series [4], the “Kidney-to-Liver Ratio PKD Mice” value turned out to be 5.7 and the “Kidney-to-Liver Ratio Wild Type Mice” value was found to be 12.4.

In the case of ASGSCMASCMUSUMUSGS [Compound 4324], in the series with miR-17, the “miPSA Score PKD Mice” value is listed as 2.53 and the “miPSA Score Wild Type Mice” value is 2.81. For the same compound, in series [4], the “Kidney-to-Liver Ratio PKD Mice” value is listed as 3.9 and the “Kidney-to-Liver Ratio Wild Type Mice” value is 5.0.
